Test results: patent publication US20110305784A1, “Fractionated products obtained from gamboge resin, and medical uses of the same” (priority 2010, published 2011)
In brackets after ≈: the same amount, converted by molar mass.

Legend:
[1] = test system: Human umbilical venal epithelial cell (HUVEC); assay: in vitro; settings: HUVEC; for IC50: Homo sapiens, read-out: IC50 (50% inhibition concentration)
From the text: (§1) The in vitro anti-cancer test was primarily used to detect the effect of a candidate drug on cancer cell proliferation. The working principle involved therein is the ability of viable cells to shift alamarBlue (AbD Serotec, UK) from its originally non-fluorescent oxidized state (non-fluorescent, blue) to a reduced form (fluorescent, red) having fluorescence via metabolic reaction. According to the fluorescent data result generated by the alamarBlue reagent thus obtained, the proliferation of the viable cells and cell activity can be quantified for detection.
(§2) In the in vitro anti-cancer tests, a candidate drug was tested at 5 different concentrations of 0.01, 0.1, 1, 10, and 100 μg/ml, and six human cancer cell lines and a normal human cell line were used (see Table 10).

[2] = test system: Human colon adenocarcinoma cell HT-29; assay: cells; settings: for IC50: HT-29, read-out: IC50 (50% inhibition concentration); for CC50: HT-29, read-out: LC50 (50% lethal concentration)
From the text: as §1, §2

[3] = test system: Human histocytic lymphoma cell U937; assay: cells; settings: for IC50: U-937, read-out: IC50 (50% inhibition concentration); for CC50: U-937, read-out: LC50 (50% lethal concentration)
From the text: as §1, §2

[4] = test system: Human hepatocellular carcinoma cell HepG2; assay: cells; settings: for IC50: HepG2, read-out: IC50 (50% inhibition concentration); for CC50: HepG2, read-out: LC50 (50% lethal concentration)
From the text: as §1, §2

[5] = test system: Human lung carcinoma cell A549; assay: cells; settings: for IC50: A549, read-out: IC50 (50% inhibition concentration); for CC50: A549, read-out: LC50 (50% lethal concentration)
From the text: as §1, §2

[6] = test system: Human promyelocytic leukemia cell HL-60; assay: cells; settings: for IC50: HL-60, read-out: IC50 (50% inhibition concentration); for CC50: HL-60, read-out: LC50 (50% lethal concentration)
From the text: as §1, §2

[7] = test system: Human breast adenocarcinoma cell MCF7; assay: cells; settings: for IC50: MCF7, read-out: IC50 (50% inhibition concentration); for CC50: MCF7, read-out: LC50 (50% lethal concentration)
From the text: as §1, §2

[8] = in vitro; settings: human
From the text: as §1, §2

Structure (SMILES)	LC50 (50% lethal concentration) [1]	IC50 [1]	IC50 [2]	CC50 [2]	IC50 [3]	CC50 [3]	IC50 [4]	CC50 [4]	IC50 [5]	CC50 [5]	IC50 [6]	CC50 [6]	IC50 [7]	CC50 [7]	CC50 [8]
C=C(C)C1CC[C@]2(C)C[C@H]1c1c(O)c3c(c(CC=C(C)C)c1O2)O[C@]12C(=C[C@@H]4CC1C(C)(C)O[C@]2(/C=C/C(C)C(=O)O)C4=O)C3=O (stereo partly drawn) [Gh-2508, β-gambogellic acid]	5.4 µg/mL (≈ 8.59 µM)														
C=C(C)[C@@H]1CC[C@@]2(C)CC1c1c(O)c3c(c(CC=C(C)C)c1O2)O[C@]12C(=C[C@@H]4CC1C(C)(C)O[C@]2(C/C=C(/C)C(=O)O)C4=O)C3=O [Gh-2603-1, epigambogellic acid]		0.26 µg/mL (≈ 0.414 µM)	1.6 µg/mL (≈ 2.54 µM)	3.7 µg/mL (≈ 5.88 µM)	1.3 µg/mL (≈ 2.07 µM)	3.1 µg/mL (≈ 4.93 µM)	1 µg/mL (≈ 1.59 µM)	3.3 µg/mL (≈ 5.25 µM)	0.036 µg/mL (≈ 0.0573 µM)	0.34 µg/mL (≈ 0.541 µM)	1 µg/mL (≈ 1.59 µM)	2.9 µg/mL (≈ 4.61 µM)	2.2 µg/mL (≈ 3.5 µM)	4.2 µg/mL (≈ 6.68 µM)	
C=C(C)C1CC[C@]2(C)C[C@H]1c1c(O)c3c(c(CC=C(C)C)c1O2)O[C@]12C(=CC4CC1C(C)(C)O[C@]2(C/C=C(/C)C(=O)O)C4=O)C3=O (stereo partly shown) [Gh-2603-2, gambogellic acid]		0.14 µg/mL (≈ 0.223 µM)	1.4 µg/mL (≈ 2.23 µM)	3.9 µg/mL (≈ 6.2 µM)	1.5 µg/mL (≈ 2.39 µM)	3.6 µg/mL (≈ 5.73 µM)	0.65 µg/mL (≈ 1.03 µM)	3.5 µg/mL (≈ 5.57 µM)	0.2 µg/mL (≈ 0.318 µM)	0.47 µg/mL (≈ 0.748 µM)	0.93 µg/mL (≈ 1.48 µM)	2.4 µg/mL (≈ 3.82 µM)	2.2 µg/mL (≈ 3.5 µM)	4.2 µg/mL (≈ 6.68 µM)	
CC(C)=CCC[C@]1(C)C=Cc2c(O)c3c(c(CC=C(C)C)c2O1)O[C@]12C(=C[C@@H]4CC1C(C)(C)OC2(C/C=C(/C)C(=O)O)C4=O)C3=O [Gh-2605, gambogic acid]	1.6 µg/mL (≈ 2.54 µM)														
CC(C)=CCC[C@@]1(C)C=Cc2c(O)c3c(c(CC=C(C)C)c2O1)O[C@]12C(=C[C@@H]4CC1C(C)(C)O[C@]2(C/C=C(/C)C(=O)O)C4=O)C3=O [Gh-2606, epigambogic acid]	1.4 µg/mL (≈ 2.23 µM)			2 µg/mL (≈ 3.18 µM)				3 µg/mL (≈ 4.77 µM)	0.1 µg/mL (≈ 0.159 µM)						
CC(C)=CCc1c2c(c(O)c3c1O[C@@]1(C)CCC4C3C1C4(C)C)C(=O)C1=C[C@@H]3CC4C(C)(C)O[C@](C/C=C(/C)C(=O)O)(C3=O)[C@@]14O2 [Gh-2607-1A, epiformoxanthone B]	1.5 µg/mL (≈ 2.39 µM)														
CC(C)=CCc1c2c(c(O)c3c1O[C@]1(C)CCC4[C@H]3C1C4(C)C)C(=O)C1=CC3CC4C(C)(C)O[C@](C/C=C(/C)C(=O)O)(C3=O)[C@@]14O2 [Gh-2607-B, formoxanthone B]	1.6 µg/mL (≈ 2.54 µM)	0.07 µg/mL (≈ 0.111 µM)	0.3 µg/mL (≈ 0.477 µM)	1 µg/mL (≈ 1.59 µM)	0.1 µg/mL (≈ 0.159 µM)			4 µg/mL (≈ 6.36 µM)	0.1 µg/mL (≈ 0.159 µM)				0.1 µg/mL (≈ 0.159 µM)		
CC(C)=CCC/C(C)=C/Cc1c(O)c(CC=C(C)C)c2c(c1O)C(=O)C1=C[C@@H]3CC4C(C)(C)O[C@](C/C=C(\C)C(=O)O)(C3=O)[C@@]14O2 [Gh-2642, isogambogenic acid]	11 µg/mL (≈ 17.4 µM)										9 µg/mL (≈ 14.3 µM)		3 µg/mL (≈ 4.76 µM)		
CC(C)=CCc1c2c(c(O)c3c1O[C@]14C(=C[C@@H]5CC1C(C)(C)OC4(C/C=C(/C)C(=O)O)C5=O)C3=O)C=C[C@@](C)(CCC(O)C(C)(C)O)O2 (stereo partly shown) [Gh-3261, formoxanthone J]				3.9 µg/mL (≈ 5.88 µM)		0.31 µg/mL (≈ 0.468 µM)		2.8 µg/mL (≈ 4.22 µM)		0.5 µg/mL (≈ 0.754 µM)		7 µg/mL (≈ 10.6 µM)		2.8 µg/mL (≈ 4.22 µM)	1.4 µg/mL (≈ 2.11 µM)
CC(C)=CCc1c2c(c(O)c3c1O[C@]14C(=C[C@@H]5CC1C(C)(C)OC4(C/C=C(/C)C(=O)O)C5=O)C3=O)C=C[C@](C)(CCC(O)C(C)(C)O)O2 (stereo partly shown) [Gh-3271, epiformoxanthone J]				5.8 µg/mL (≈ 8.75 µM)		0.35 µg/mL (≈ 0.528 µM)		4.6 µg/mL (≈ 6.94 µM)		0.51 µg/mL (≈ 0.769 µM)		17.1 µg/mL (≈ 25.8 µM)		0.62 µg/mL (≈ 0.935 µM)	1.5 µg/mL (≈ 2.26 µM)
CC(C)=CCC/C(C)=C/Cc1c(O)c(CC=C(C)C)c2c(c1O)C(=O)C1=C[C@@H]3CC4C(C)(C)OC(CC=C(C)C)(C3=O)[C@@]14O2 [Gh-4301, desoxygambogenin]	1.3 µg/mL (≈ 2.16 µM)					> 100 µg/mL						> 100 µg/mL			
